For test [1], the system named is H1975 (EGFR T790M/L858R) cells. Put plainly: CCK8 antiproliferative assay, H1975 cells. The class given is cell-based, human. An excerpt: (§1) The human cancer cell lines (H1975, H2228) used in this study were purchased from the Guangzhou ginny ou biotechnology Co., Ltd. (Guangzhou, China). The human cancer cell lines (NCI-H522) used in this study were purchased from the Shenzhen Haodi Huatuo Biotechnology Co., LTD (Shenzhen, China). The human cancer cell lines (LOVO, HLF, BJ, LO2) used in this study were purchased from the Laboratory Animal Service Center at Sun Yat-sen University (Guangzhou, China). […] Cell lines LOVO, HLF, BJ, and LO2 were cultivated in DMEM containing 10% (v/v) heat-inactivated fetal bovine serum (FBS), 100 units/mL penicillin, and 100 μg/mL streptomycin.

The test system of test [2] is H522 cells. Briefly: CCK8 antiproliferative assay, H522 cells. Type of test: cell-based. The note with it: Homo sapiens, NCI-H522, 72 h. An excerpt: The human cancer cell lines (H1975, H2228) used in this study were purchased from the Guangzhou ginny ou biotechnology Co., Ltd. (Guangzhou, China). The human cancer cell lines (NCI-H522) used in this study were purchased from the Shenzhen Haodi Huatuo Biotechnology Co., LTD (Shenzhen, China). The human cancer cell lines (LOVO, HLF, BJ, LO2) used in this study were purchased from the Laboratory Animal Service Center at Sun Yat-sen University (Guangzhou, China). Cell lines were cultivated in 1640 containing 10% (v/v) heat-inactivated fetal bovine serum (FBS), 100 units/mL penicillin, and 100 μg/mL streptomycin. Cell lines LOVO, HLF, BJ, and LO2 were cultivated in DMEM containing 10% (v/v) heat-inactivated fetal bovine serum (FBS), 100 units/mL penicillin, and 100 μg/mL streptomycin.
On the technique in general: Formazan colour is commonly taken as a measure of viable cells.

For test [3], the system named is H2228 (EML4-ALK) cells. Briefly: CCK8 antiproliferative assay, H2228 cells. The class given is cell-based, human. Particulars: read-out: IC50 H2228.
Description: as §1

Test [4] deals with 293A (human embryonic kidney cells). Put plainly: Cytotoxicity test on nontumorigenic cells, 293A. Type of test: cell-based. Particulars: Homo sapiens, 293A, read-out: Toxicity to normal cells, IC50 293A. From the text: (§2) It is critical to evaluate the balance between the safety and efficacy of drugs for the development of new drugs; thus, we then conducted a cytotoxicity test on […] types of nontumorigenic cell lines from different origins, including LO2 (human normal liver cells), HK2 (human kidney proximal convoluted tubule epithelial cells), HLF (human embryonic lung fibroblast), 293A (human embryonic kidney cells), and HUVEC (human umbilical vein endothelial cells). […] In addition, we evaluated the compound’s safety in vivo by performing acute toxicity tests in mice, and 9j was injected intravenously at concentrations of 100 mg/kg, 150 mg/kg, and 300 mg/kg.
(§3) A total of 7000 cells per well were seeded in a 96-well plate with at least three technical replicates; then, exposed to different concentrations (10, 5, 1, 0.1, 0.05, 0.01 uM) of the test compounds for 72 h. After the treatment, CCK8 (Sigma, St. Louis, MO, USA) was added to each well under sterile conditions (to a final concentration of 10% of the total volume) and the plates were incubated for 2–4 h at 37 °C. Absorbance was measured at 450 nm in a microplate reader.

Test [5] relates to LO2 (human normal liver cells). Put plainly: Cytotoxicity test on nontumorigenic cells, LO2. Type of test: cell-based. Particulars: Homo sapiens; LO2, mean ± SE; read-out: Toxicity to normal cells, IC50 LO2.
Description: as §2, §3

In test [6] the test system is HLF (human embryonic lung fibroblast). Put plainly: Cytotoxicity test on nontumorigenic cells, HLF. The class given is cell-based. Particulars: Homo sapiens, Fibroblast, read-out: Toxicity to normal cells, IC50 HLF.
Description: as §2, §3

Test [7] deals with HK2 (human kidney proximal convoluted tubule epithelial cells). Briefly: Cytotoxicity test on nontumorigenic cells, HK2. Type of test: cell-based. The note with it: Homo sapiens, Epithelial cell; HK2, mean ± SE; read-out: Toxicity to normal cells, IC50 HK2.
Description: as §2, §3

Test [8] has as its system HUVEC (human umbilical vein endothelial cells). Briefly: Cytotoxicity test on nontumorigenic cells, HUVEC. The class given is cell-based. Particulars: Homo sapiens; HUVEC, mean ± SE; read-out: Toxicity to normal cells, IC50 HUVEC.
Description: as §2, §3

Setting [9] is: Homo sapiens, NCI-H1975, 72 h, CCK8 assay, 72 h, H1975 (EGFR T790M/L858R), read-out: IC50 H1975.
Setting [10] is: Homo sapiens, NCI-H2228, 72 h, CCK8 assay, 72 h, H2228 (EML4-ALK).
[11] abbreviates: CCK8 assay, 72 h, H1975 (EGFR T790M/L858R), read-out: IC50 H1975.

Like-named read-outs stand apart in the source and are kept apart here.

One may read the IC50 as the midpoint of a concentration-inhibition curve. On to `C=CC(=O)Nc1cc(Nc2ncc(Cl)c(Nc3ccccc3[S+]([O-])C3CC3)n2)c(OC)cc1C1CCN(C)CC1` (stereo not shown) [9a, N-(5-((5-Chloro-4-((2-(cyclopropylsulfinyl)phenyl)amino)pyrimidin-2-yl)amino)-4-methoxy-2-(1-methylpiperidin-4-yl)phenyl)acrylamide], for which the concentration for half-maximal inhibition (IC50) in test [1] (setting [9]) is 451 ± 70 nM; in test [2], > 10000 nM; in test [3] (setting [10]), 121 ± 90 nM.
For the compound `C=CC(=O)Nc1cc(Nc2ncc(Cl)c(Nc3ccccc3[S+]([O-])CC3CC3)n2)c(OC)cc1C1CCN(C)CC1` (stereo not shown) [9b, N-(5-((5-Chloro-4-((2-((cyclopropylmethyl)sulfinyl)phenyl)amino)pyrimidin-2-yl)amino)-4-methoxy-2-(1-methylpiperidin-4-yl)phenyl)acrylamide], the IC50 in test [1] (setting [11]) is 69 ± 7 nM; in test [1] (setting [9]) it was 68.9 nM; in test [2], > 10000 nM; in test [3] (CCK8 assay, 72 h, H2228 (EML4-ALK)) it was 99 ± 7 nM; in test [3] (setting [10]), 98.9 nM.
`C=CC(=O)Nc1cc(Nc2ncc(Cl)c(Nc3ccc(F)cc3[S+]([O-])CC3CC3)n2)c(OC)cc1C1CCN(C)CC1` (stereo not shown) [9c, N-(5-((5-Chloro-4-((2-((cyclopropylmethyl)sulfinyl)-4-fluorophenyl)amino)pyrimidin-2-yl)amino)-4-methoxy-2-(1-methylpiperidin-4-yl)phenyl)acrylamide]: the figures for the IC50 in test [1] (setting [9]), in test [2] and in test [3] (setting [10]) were 271 ± 130 nM, > 10000 nM and 103 ± 70 nM, respectively.
On the same counts, the results for `C=CC(=O)Nc1cc(Nc2ncc(Cl)c(Nc3ccc(Cl)cc3[S+]([O-])CC3CC3)n2)c(OC)cc1C1CCN(C)CC1` (stereo not shown) [9d, N-(5-((5-Chloro-4-((4-chloro-2-((cyclopropylmethyl)sulfinyl)phenyl)amino)pyrimidin-2-yl)amino)-4-methoxy-2-(1-methylpiperidin-4-yl)phenyl)acrylamide] are 114 ± 80 nM, > 10000 nM and 89 ± 30 nM.
On the same counts, the results for `C=CC(=O)Nc1cc(Nc2ncc(Cl)c(Nc3ccccc3[S+]([O-])CC)n2)c(OC)cc1C1CCN(C)CC1` (stereo not shown) [9e, N-(5-((5-Chloro-4-((2-(ethylsulfinyl)phenyl)amino)pyrimidin-2-yl)amino)-4-methoxy-2-(1-methylpiperidin-4-yl)phenyl)acrylamide] are 170 ± 20 nM, > 10000 nM and 97.7 ± 50 nM.
For `C=CC(=O)Nc1cc(Nc2ncc(Cl)c(Nc3ccc(F)cc3[S+]([O-])CC)n2)c(OC)cc1C1CCN(C)CC1` (stereo not shown) [9f, N-(5-((5-Chloro-4-((2-(ethylsulfinyl)-4-fluorophenyl)amino)pyrimidin-2-yl)amino)-4-methoxy-2-(1-methylpiperidin-4-yl)phenyl)acrylamide] the same measures were 550 ± 90 nM, > 10000 nM and 92.8 ± 60 nM.
In the case of `C=CC(=O)Nc1cc(Nc2ncc(Cl)c(Nc3ccc(Cl)cc3[S+]([O-])CC)n2)c(OC)cc1C1CCN(C)CC1` (stereo not shown) [9g, N-(5-((5-Chloro-4-((4-chloro-2-(ethylsulfinyl)phenyl)amino)pyrimidin-2-yl)amino)-4-methoxy-2-(1-methylpiperidin-4-yl)phenyl)acrylamide], the IC50 in test [1] (setting [9]) is 69 ± 10 nM; in test [2], > 10000 nM; in test [3] (setting [10]), 104 ± 50 nM.
With `C=CC(=O)Nc1cc(Nc2ncc(Cl)c(Nc3ccccc3[S+]([O-])C(C)C)n2)c(OC)cc1C1CCN(C)CC1` (stereo not shown) [9h, N-(5-((5-Chloro-4-((2-(isopropylsulfinyl)phenyl)amino)pyrimidin-2-yl)amino)-4-methoxy-2-(1-methylpiperidin-4-yl)phenyl)acrylamide], the IC50 in test [1] (setting [11]) is 83.9 ± 30 nM; in test [1] (setting [9]) it was 68.9 to 78.2 nM; in test [2] it was > 10000 nM; in test [3] (setting [10]) it was 76.6 ± 20 nM.
For the compound `C=CC(=O)Nc1cc(Nc2ncc(Cl)c(Nc3ccc(F)cc3[S+]([O-])C(C)C)n2)c(OC)cc1C1CCN(C)CC1` (stereo not shown) [9i, N-(5-((5-Chloro-4-((4-fluoro-2-(isopropylsulfinyl)phenyl)amino)pyrimidin-2-yl)amino)-4-methoxy-2-(1-methylpiperidin-4-yl)phenyl)acrylamide], the IC50 in test [1] (setting [9]) was 309 ± 110 nM; in test [2], > 10000 nM; in test [3] (setting [10]), 98.1 ± 60 nM.
Consider `Cc1cc(Nc2ncc(Cl)c(Nc3ccccc3S(=O)(=O)C(C)C)n2)c(OC(C)C)cc1C1CCNCC1` [Ceritinib, reference compound], for which the IC50 in test [1] (setting [9]) came out at 78.3 ± 30 nM; in test [3] (setting [10]) it was 22.1 ± 8 nM.
With `C=CC(=O)Nc1cc(Nc2nccc(-c3cn(C)c4ccccc34)n2)c(OC)cc1N(C)CCN(C)C` [Osimertinib, reference compound], the IC50 is 2250 ± 20 nM in test [4]; 4.1 ± 1 nM in test [1] (Homo sapiens, NCI-H1975, 72 h, read-out: IC50 H1975); 4.1 ± 1 nM in test [1] (Homo sapiens, NCI-H1975, read-out: IC50 H1975 (Table 2)); 1720 ± 50 nM in test [5]; 3240 ± 80 nM in test [6]; 2130 ± 90 nM in test [7]. The IC50 worked out at 4340 ± 10 nM in test [8] and 2016 ± 8 nM in test [3] (Homo sapiens, NCI-H2228, 72 h).

Source of the values: article PMC10004195, “Novel Dual-Target Kinase Inhibitors of EGFR and ALK Were Designed, Synthesized, and Induced Cell Apoptosis in Non-Small Cell Lung Cancer” (Molecules, 2023).
